# What was measured:
# [1] = Malodor reduction via sensory testing, feminine (vaginal) odor model; parameters: species or system human; details: trained female panel N=9, 1=no odor to 10=strongest imaginable, averaged, malodor only 6.0, 0.0% control 5.3
# Description: (§1) A trained sensory panel consisting of females, (N=9) ages 40-55 years old evaluated the samples. Panelists are regularly trained on fragrance and malodor intensity scoring and must pass routine screening and calibration tests to remain on the panel. Panelist onboarding and orientation was performed following ASTM Committee E-18 on Sensory Evaluation of Materials and Products, Guidelines for the Selection and Training of Sensory Panel Members (ASTM STP758, American Society for Testing and Materials, 1981, pp. 1-35). Panelists were selected based on health, interest, availability, descriptive and scaling ability, olfactory acuity, attitude and personality. Panelists are introduced to intensity measurement using selected intensity standards and exercised in the use of the scaling system to quantify intensity.
# (§2) Training and evaluation was performed for six weeks following orientation. Each panelist completed practice sessions where they were exposed to different types of odors (malodor, fragrance, etc.) and different substrates (fabric, clothing, blotter cards, jars, etc.). Panelist inclusion was dependent upon panel administrator discussions, specific response evaluation, and comparison to standards.
# (§3) In this example, feminine wash was formulated with various concentrations of 5-methyl-2-(1-methylethyl)-cyclohexanol acetate, as shown in Table 1 below. A sample without of 5-methyl-2-(1-methylethyl)-cyclohexanol acetate was used as a control.
# (§4) The sweat malodor model is comprised of malodors including 3-methyl-2-hexenoic acid and 3-mercapto-3-methyl-1-hexanol. The feminine odor model contains acetic acid, 2-methyl-butyric acid, valeric acid and trimethyl amine. The trained panelists subjectively evaluated the samples using a 10-point scoring scale (1=no odor to 10=strongest imaginable). Panelists are first shown the malodor only sample as a reference, and asked to rate its odor intensity. Panelists are then shown the test samples in a blinded fashion labelled with a 3 digit code. There is a 45 second wait time between samples to prevent olfactive fatigue. […]
# [2] = Vapor pressure reduction: malodors in closed flask headspace, cold finger collection, GC FID; format: physicochemical; details: with 1 g active in separate dish, sealed 500 mL flask, four hours, cold finger 10° C.
# Description: Two 500 mL Erlenmeyer flasks were prepared with a blend of five malodor substances (200 mg total; indole, methyl phenyl acetate, skatol, p-cresyl isovalerate, isoamyl phenylacetate) in a small dish. To one flask, in a separate small dish, was added 1 g of 5-methyl-2-(1-methylethyl)-cyclohexanol acetate. Each flask was sealed with a cold finger through which water at 10° C. was passed. After four hours, the flasks were opened and the cold fingers were washed with diethyl ether. This eluent is representative of the headspace above the sample, and quantifies the malodor concentration in the air. The collected diethyl ether fractions were made to a standard volume and analyzed by gas chromatography (GC FID). This experiment is meant to analyze the interaction of malodor with 5-methyl-2-(1-methylethyl)-cyclohexanol acetate in a way that mimics a consumer's experience.
# [3] = Malodor reduction via sensory testing, sweat malodor model; parameters: species or system human; details: trained female panel N=9, 1=no odor to 10=strongest imaginable, averaged, malodor only 5.8, 0.0% control 5.1
# Description: as §1, §2, §3, §4
smiles,measurement,setting,value
CC(=O)O[C@@H]1C[C@H](C)CC[C@H]1C(C)C [5-methyl-2-(1-methylethyl)-cyclohexanol acetate],Feminine (Vaginal) Malodor intensity rating from 1 to 10,[1]; 0.1% active in feminine wash,4.5
same,Feminine (Vaginal) Malodor intensity rating from 1 to 10,[1]; 0.2% active in feminine wash,3.3
same,Feminine (Vaginal) Malodor intensity rating from 1 to 10,[1]; 0.5% active in feminine wash,2.6
same,Relative Amount of Malodor: skatol,[2]; without active 0.06,0.0003
same,Relative Amount of Malodor: p-cresyl isovalerate,[2]; without active 0.10,0.0002
same,Relative Amount of Malodor: isoamyl phenylacetate,[2]; without active 1.20,0.0000
same,Relative Amount of Malodor: indole,[2]; without active 1.30,0.0300
same,Relative Amount of Malodor: methyl phenyl acetate,[2]; without active 1.50,0.0000
same,Sweat Malodor intensity rating from 1 to 10,[3]; 0.1% active in feminine wash,4.8
same,Sweat Malodor intensity rating from 1 to 10,[3]; 0.2% active in feminine wash,3.0
same,Sweat Malodor intensity rating from 1 to 10,[3]; 0.5% active in feminine wash,2.2

# — patent publication US20220047476A1, “A METHOD FOR FIGHTING FEMALE BODY ODORS” (SYMRISE AG, priority 2018, published 2022)
